Experimental data taken from PubChem BioAssay AID1963958 (Molecular Pharmacology Branch, DTP, NCI, 2024).

System: MDA-MB-231 multicell spheroids, viability
Assay: Anticancer human tumor MDA-MB-231 cell line growth inhibition [PI3K];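 note: spheroids exposed to agents for seven days before reading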;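 for viability, T/C: percent of vehicle control luminescence with DMSO treated spheroids as 100%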
Conditions: for IC50: curve of first compound; for viability, T/C: stronger effect = lower value
How it was run: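 Tumor cells grown as multi-cell spheroids with HUVEC endothelial cells and MSC fibroblast-like stroma were treated with targeted agents combined with inavolisib, alpelisib, duvelisib or copanlisib. Doses fell in half-log steps from near clinical Cmax, else from 10 microM. Viability was measured.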

**Q.** What does the source list for `CNC(=O)c1ccc(N2C(=S)N(c3ccc(C#N)c(C(F)(F)F)c3)C(=O)C2(C)C)cc1F` + CC(Nc1ncnc2nc[nH]c12)c1cc2cccc(Cl)c2c(=O)n1-c1ccccc1?
**A.** IC50 (second compound 0.0316 µM): > 10000 nM; IC50 (second compound 0.1 µM): > 10000 nM; IC50 (second compound 0.316 µM): > 10000 nM; IC50 (second compound 1 µM): > 10000 nM; IC50 (second compound 3.16 µM): > 10000 nM; IC50 (second compound 10 µM): 89.7 nM; viability, T/C (second compound 0.0316 µM, first compound 0.0316 µM): 101%; viability, T/C (second compound 0.0316 µM, first compound 0.1 µM): 110%; viability, T/C (second compound 0.0316 µM, first compound 0.316 µM): 102%; viability, T/C (second compound 0.0316 µM, first compound 1 µM): 94%; viability, T/C (second compound 0.0316 µM, first compound 3.16 µM): 97.5%; viability, T/C (second compound 0.0316 µM, first compound 10 µM): 70.3%; viability, T/C (second compound 0.1 µM, first compound 0.0316 µM): 93%; viability, T/C (second compound 0.1 µM, first compound 0.1 µM): 96%; viability, T/C (second compound 0.1 µM, first compound 0.316 µM): 105%; viability, T/C (second compound 0.1 µM, first compound 1 µM): 101%; viability, T/C (second compound 0.1 µM, first compound 3.16 µM): 95.7%; viability, T/C (second compound 0.1 µM, first compound 10 µM): 79.9%; viability, T/C (second compound 0.316 µM, first compound 0.0316 µM): 89%; viability, T/C (second compound 0.316 µM, first compound 0.1 µM): 96.8%; viability, T/C (second compound 0.316 µM, first compound 0.316 µM): 91.1%; viability, T/C (second compound 0.316 µM, first compound 1 µM): 99.2%; viability, T/C (second compound 0.316 µM, first compound 3.16 µM): 85.5%; viability, T/C (second compound 0.316 µM, first compound 10 µM): 72.9%; viability, T/C (second compound 1 µM, first compound 0.0316 µM): 81.2%; viability, T/C (second compound 1 µM, first compound 0.1 µM): 84.1%; viability, T/C (second compound 1 µM, first compound 0.316 µM): 75.4%; viability, T/C (second compound 1 µM, first compound 1 µM): 77.2%; viability, T/C (second compound 1 µM, first compound 3.16 µM): 76.3%; viability, T/C (second compound 1 µM, first compound 10 µM): 64.1%; viability, T/C (second compound 3.16 µM, first compound 0.0316 µM): 61.4%; viability, T/C (second compound 3.16 µM, first compound 0.1 µM): 59.5%; viability, T/C (second compound 3.16 µM, first compound 0.316 µM): 63.1%; viability, T/C (second compound 3.16 µM, first compound 1 µM): 61.4%; viability, T/C (second compound 3.16 µM, first compound 3.16 µM): 62.3%; viability, T/C (second compound 3.16 µM, first compound 10 µM): 51%; viability, T/C (second compound 10 µM, first compound 0.0316 µM): 49.5%; viability, T/C (second compound 10 µM, first compound 0.1 µM): 51.6%; viability, T/C (second compound 10 µM, first compound 0.316 µM): 47.3%; viability, T/C (second compound 10 µM, first compound 1 µM): 49.4%; viability, T/C (second compound 10 µM, first compound 3.16 µM): 42.3%; viability, T/C (second compound 10 µM, first compound 10 µM): 39.7%

**Q.** `Cn1cnc2c(F)c(Nc3ccc(Br)cc3Cl)c(C(=O)NOCCO)cc21` + CC(Nc1ncnc2nc[nH]c12)c1cc2cccc(Cl)c2c(=O)n1-c1ccccc1 was tested. Which IC50 (second compound 0.0316 µM) did it give?
**A.** Its IC50 is 208 nM.

**Q.** What about the IC50 (second compound 0.1 µM) of the same compound?
**A.** Its IC50 is 170 nM.

**Q.** What about the IC50 (second compound 0.316 µM) of the same compound?
**A.** The IC50 was 41.7 nM.

**Q.** And the IC50 (second compound 1 µM)?
**A.** Its IC50 is 24.5 nM.

**Q.** And the IC50 (second compound 3.16 µM)?
**A.** The IC50 was under 9.49 nM.

**Q.** What about the IC50 (second compound 10 µM) of the same compound?
**A.** The IC50 was under 9.49 nM.

**Q.** What about the viability, T/C (second compound 0.0316 µM, first compound 0.00949 µM) of the same compound?
**A.** Its viability, T/C is 75%.

**Q.** And the viability, T/C (second compound 0.0316 µM, first compound 0.03 µM)?
**A.** Its viability, T/C is 63.7%.

**Q.** And the viability, T/C (second compound 0.0316 µM, first compound 0.0949 µM)?
**A.** The viability, T/C was 50.3%.

**Q.** What about the viability, T/C (second compound 0.0316 µM, first compound 0.3 µM) of the same compound?
**A.** Its viability, T/C is 50.5%.

**Q.** What about the viability, T/C (second compound 0.0316 µM, first compound 0.949 µM) of the same compound?
**A.** The viability, T/C was 44.5%.

**Q.** And the viability, T/C (second compound 0.0316 µM, first compound 3 µM)?
**A.** Its viability, T/C is 31.8%.

**Q.** What about the viability, T/C (second compound 0.1 µM, first compound 0.00949 µM) of the same compound?
**A.** The viability, T/C was 72.2%.

**Q.** And the viability, T/C (second compound 0.1 µM, first compound 0.03 µM)?
**A.** The viability, T/C was 63.9%.

**Q.** What about the viability, T/C (second compound 0.1 µM, first compound 0.0949 µM) of the same compound?
**A.** Its viability, T/C is 50.2%.

**Q.** And the viability, T/C (second compound 0.1 µM, first compound 0.3 µM)?
**A.** Its viability, T/C is 47.5%.

**Q.** And the viability, T/C (second compound 0.1 µM, first compound 0.949 µM)?
**A.** Its viability, T/C is 41.8%.

**Q.** What about the viability, T/C (second compound 0.1 µM, first compound 3 µM) of the same compound?
**A.** Its viability, T/C is 30.6%.

**Q.** What about the viability, T/C (second compound 0.316 µM, first compound 0.00949 µM) of the same compound?
**A.** The viability, T/C was 65%.

**Q.** And the viability, T/C (second compound 0.316 µM, first compound 0.03 µM)?
**A.** The viability, T/C was 53%.

**Q.** What about the viability, T/C (second compound 0.316 µM, first compound 0.0949 µM) of the same compound?
**A.** Its viability, T/C is 42.3%.

**Q.** What about the viability, T/C (second compound 0.316 µM, first compound 0.3 µM) of the same compound?
**A.** The viability, T/C was 41%.

**Q.** And the viability, T/C (second compound 0.316 µM, first compound 0.949 µM)?
**A.** Its viability, T/C is 39.1%.

**Q.** What about the viability, T/C (second compound 0.316 µM, first compound 3 µM) of the same compound?
**A.** Its viability, T/C is 34.6%.

**Q.** What about the viability, T/C (second compound 1 µM, first compound 0.00949 µM) of the same compound?
**A.** The viability, T/C was 56.1%.

**Q.** And the viability, T/C (second compound 1 µM, first compound 0.03 µM)?
**A.** The viability, T/C was 50.5%.

**Q.** What about the viability, T/C (second compound 1 µM, first compound 0.0949 µM) of the same compound?
**A.** Its viability, T/C is 37.7%.

**Q.** What about the viability, T/C (second compound 1 µM, first compound 0.3 µM) of the same compound?
**A.** The viability, T/C was 39%.

**Q.** What about the viability, T/C (second compound 1 µM, first compound 0.949 µM) of the same compound?
**A.** The viability, T/C was 33.2%.

**Q.** What about the viability, T/C (second compound 1 µM, first compound 3 µM) of the same compound?
**A.** The viability, T/C was 26.8%.

**Q.** What about the viability, T/C (second compound 3.16 µM, first compound 0.00949 µM) of the same compound?
**A.** Its viability, T/C is 44.7%.

**Q.** What about the viability, T/C (second compound 3.16 µM, first compound 0.03 µM) of the same compound?
**A.** Its viability, T/C is 36.4%.

**Q.** And the viability, T/C (second compound 3.16 µM, first compound 0.0949 µM)?
**A.** The viability, T/C was 28.8%.

**Q.** And the viability, T/C (second compound 3.16 µM, first compound 0.3 µM)?
**A.** The viability, T/C was 27.1%.

**Q.** And the viability, T/C (second compound 3.16 µM, first compound 0.949 µM)?
**A.** Its viability, T/C is 26.2%.

**Q.** And the viability, T/C (second compound 3.16 µM, first compound 3 µM)?
**A.** The viability, T/C was 19.8%.

**Q.** What about the viability, T/C (second compound 10 µM, first compound 0.00949 µM) of the same compound?
**A.** The viability, T/C was 32.8%.

**Q.** What about the viability, T/C (second compound 10 µM, first compound 0.03 µM) of the same compound?
**A.** Its viability, T/C is 29.2%.

**Q.** What about the viability, T/C (second compound 10 µM, first compound 0.0949 µM) of the same compound?
**A.** Its viability, T/C is 21.7%.

**Q.** And the viability, T/C (second compound 10 µM, first compound 0.3 µM)?
**A.** Its viability, T/C is 22.6%.

**Q.** And the viability, T/C (second compound 10 µM, first compound 0.949 µM)?
**A.** The viability, T/C was 24%.

**Q.** And the viability, T/C (second compound 10 µM, first compound 3 µM)?
**A.** The viability, T/C was 12.9%.
